# Literature values in patent US20170231227A1, “ANTIFUNGAL-GRAFTED POLYOLEFIN” (priority 2016, published 2017).
compound,measurement,setting,value
"C[C@@H]1C/C=C/C=C/C=C/C=C/[C@H](O[C@@H]2O[C@H](C)[C@@H](O)[C@H](N)[C@@H]2O)C[C@@H]2O[C@](O)(C[C@@H](O)C[C@H]3O[C@@H]3/C=C/C(=O)O1)C[C@H](O)[C@H]2C(=O)O [Natamycin, natamycin]",solubility in ethanol,pure ethanol,40 ppm
same,solubility in water,water,poor
